In patent US9115122B2, “Non-ATP dependent inhibitors of extracellular signal-regulated kinase (ERK)” (UNIVERSITY OF MARYLAND, BALTIMORE, priority 2012, dated 2015):

Key:
ERK2 = ERK2 (Rattus norvegicus (Rat), UniProt P63086); experiment: Binding of DRS compound to ERK2 (FIG. 10)
A375 melanoma cells [1] = experiment: Proliferation of A375 melanoma cells (Example 3); format: cell-based
Excerpt: We examined the effects of these compounds on proliferation of A375 melanoma cells with BRaf mutations that require ERK activation for survival.
Moreover, 76.3 and TMZ also appeared to delay tumor growth in mice harboring A375 tumors indicative of prolonged survival (FIG. 13B).

A375 melanoma cells [2] = experiment: Cell proliferation, fluorescent Cell Titer Blue Assay (Example 1); format: cell-based; details: Homo sapiens, A-375; 48 hours
Experimental: (§1) FIG. 5. Dose dependent inhibition of cancer cell proliferation in vitro by SF-3-026 and analogs. A375 (closes circles), RPM17951 (closed squares), HeLa (open circles), or Jurkat (open squares) cells were treated for 48 hours with indicated concentration of (a) SF-3-026, (b) SF-2-027, (c) SF-2-029, or (d) SF-2-030 and cell proliferation was assessed by the fluorescent Cell Titer Blue Assay. The data were reproduced in 3 separate experiments.
(§2) Cells were seeded at 25,000 cells/well in 96-well plate and cultured overnight. Cells were treated for 24 hours with various concentrations of compounds and cell viability or caspase 3/7 activity were measured according to manufacturer's instructions using the fluorescent Cell Titer Blue Assay (Promega) or luminescent Caspase 3/7 Glo Assay (Promega).
(§3) It was next determined whether inhibition of AP-1 proteins by SF-3-026 and analogs affected the proliferation of cancer cells driven by mutations that constitutively activate the ERK1/2 pathway. For these experiments, A375 and RPMI7951 melanoma cells, which have a valine to glutamate mutation on residue 600 in BRaf that causes constitutive ERK1/2 activation, were chosen. Moreover, RPMI7951 cells are resistant to clinically used BRaf inhibitors due to overexpression of MAP3K8 (the gene encoding COT/Tp12) that re-activates ERK1/2 signaling. Both melanoma cells lines were treated with varying doses of SF-3-026 or analogs and cell viability was compared to HeLa cervical carcinoma and Jurkat T-cell leukemia cells, which are p53 defective but contain no known activating mutations in the ERK1/2 pathway.

[3] = system: HeLa cervical carcinoma cells; experiment: as above; format: cell-based; details: Homo sapiens, 48 hours
Experimental: as §1, §2, §3

[4] = system: Jurkat T-cell leukemia cells; experiment: as above; format: cell-based; details: Homo sapiens, 48 hours
Experimental: as §1, §2, §3

RPMI7951 melanoma cells = experiment: as above; format: cell-based; details: Homo sapiens, RPMI-7951; 48 hours
Experimental: as §1, §2, §3

AP-1 promoter = AP-1 promoter luciferase assay, EGF-stimulated HeLa cells (Example 1); format: cell-based; details: Homo sapiens, EGF stimulation, 4 hours, read-out: IC50 inhibition of the AP-1 promoter
Experimental: FIG. 4. Compound SF-3-026 and analogs inhibit SRE and AP-1 transcription factor function. (a) HeLa cells were transfected with constructs containing SRE or AP-1 promoters driving luciferase expression and then stimulated with EGF in the presence or absence of SF-3-026 for 4 hours followed by measurements of luciferase activity. Cells treated with U0126 were used as a positive inhibitor control. (b and c) HeLa cells were prepared and treated as in (a) with the indicated concentrations of SF-3-026 or analogs for 4 hours followed by the measurement of luciferase activity regulated by the SRE (b) or AP-1 (c) promoters. Data in (b and c) were normalized to EGF-only treatment and represent the mean and standard deviation from three independent experiments. (d) Compound SF-3-026 and analogs inhibit MEK1-induced AP-1 transcription factor function. […]
HeLa cells were seeded in 24-well plates (40,000 cells/well) and incubated 18 hours to achieve ˜60-70% confluent. […] The luciferase activity in the cell extracts was determined with a Dual Luciferase Assay System (Promega) according to the manufacturer's instructions. Luciferase activities were monitored with a Lumat LB 9507 luminometer (Berthold Technology) and data were normalized to the amount of protein in each sample. […]

[5] = system: MEK1-induced AP-1 promoter activity; experiment: AP-1 promoter luciferase assay, HeLa cells expressing active MEK1 mutant; format: cell-based; details: Homo sapiens, 4 hours, read-out: IC50 inhibition of MEK1-induced AP-1 promoter activity
Experimental: FIG. 4. Compound SF-3-026 and analogs inhibit SRE and AP-1 transcription factor function. (a) HeLa cells were transfected with constructs containing SRE or AP-1 promoters driving luciferase expression and then stimulated with EGF in the presence or absence of SF-3-026 for 4 hours followed by measurements of luciferase activity. Cells treated with U0126 were used as a positive inhibitor control. (b and c) HeLa cells were prepared and treated as in (a) with the indicated concentrations of SF-3-026 or analogs for 4 hours followed by the measurement of luciferase activity regulated by the SRE (b) or AP-1 (c) promoters. Data in (b and c) were normalized to EGF-only treatment and represent the mean and standard deviation from three independent experiments. (d) Compound SF-3-026 and analogs inhibit MEK1-induced AP-1 transcription factor function. HeLa cells were transfected with the AP-1 promoter construct and a constitutively active MEK1 mutant in the presence (10 μM) or absence of the MEK1/2 inhibitor (U0126) or an ATP-competitive ERK inhibitor (ERKi) for 4 hours followed by measurements of luciferase activity. (e) Cells expressing the AP-1 promoter and an active MEK-1 construct were treated with the indicated concentrations of SF-3-026 or analogs for 4 hours followed by the measurement of luciferase activity. Data in (e) were normalized to active MEK1-only treatment and represent the mean and standard deviation from three independent experiments.
HeLa cells were seeded in 24-well plates (40,000 cells/well) and incubated 18 hours to achieve ˜60-70% confluent. Cells were transfected with activator protein-1 (pAP1(PMA)-TA-Luc; Clontech) or the serum response element (pGL4.33-SRE; Promega) luciferase reporter plasmids (250 ng/well) using Lipofectamine™ (Invitrogen). After 16 hours, cells were pre-treated with varying amounts of compounds as indicated for 20 minutes, followed by stimulation with EGF (25 ng/mL) for 4.5 hr. In some experiments, cells transfected with the pAP1(PMA)-TA-Luc promoter and a constitutively active MEK1 mutant cDNA were treated with varying amounts of compounds during the last 4 hours of incubation. The luciferase activity in the cell extracts was determined with a Dual Luciferase Assay System (Promega) according to the manufacturer's instructions. Luciferase activities were monitored with a Lumat LB 9507 luminometer (Berthold Technology) and data were normalized to the amount of protein in each sample. […]

A375 melanoma cells [6] = experiment: Caspase 3/7 Glo Assay; format: cell-based; details: varying doses, 24 hours
Experimental: FIG. 6. SF-3-030 induces growth inhibition and apoptosis in A375 melanoma cells. A375 were seeded in a 96-well plate and incubated for 18-20 hours. Cells were treated with varying concentrations of SF-3-030 and allowed to incubate for an additional 24 hours. Cell viability was measured using the fluorescent Cell Titer Blue Assay and caspase 3/7 activity was measured using the luminescent Caspase 3/7 Glo Assay. Data represent the average of two experiments performed in duplicate.
as §2
(§4) To test whether the inhibition of cell proliferation was due to an apoptotic response, A375 and HeLa cells were treated with varying doses of SF-3-030 and cell viability along with caspase 3/7 activity was measured.

HeLa cells = experiment: Caspase 3/7 Glo Assay; format: cell-based; details: varying doses
Experimental: as §2, §4

[7] = system: c-Fos, Fra1, and FosB expression; experiment: Immunoblot of EGF-induced c-Fos, Fra1 and FosB expression in HeLa cells; format: cell-based; details: EGF 25 ng/mL
Experimental: FIG. 3. EGF-mediated induction of AP-1 proteins is inhibited by SF-3-026 and SF-3-030. (a) HeLa cells were treated for 10, 30, or 60 min. with EGF (25 ng/mL) in the presence of 50 μM SF-3-026 or 10 μM U0126. Protein lysates were immunoblotted for c-Fos, Fra1, FosB and FosB2. Phosphorylated ERK1/2 is not affected by SF-3-026 and α-tubulin expression is shown for a protein loading control. (b) Protein lysates from HeLa cells treated for 30 min. with EGF in the absence or presence of 10, 25, 50, or 100 μM of SF-3-026 or SF-3-030 were immunoblotted for c-Fos, Fra1, FosB, FosB2, as well as phosphorylated ERK1/2 and MEK1/2. Total ERK2 and α-tubulin expression are shown for protein loading controls. Data are representative of three independent experiments.
Analysis of protein expression levels, activity, and cell proliferation were done as previously described. […] Proteins were separated by SDS-PAGE, analyzed by immunoblotting, and detected using enhanced chemiluminescence (ECL, GE Healthcare, United Kingdom).
The reported half-life for c-Fos is ˜10 minutes and growth factor-mediated stabilization of c-Fos protein expression can be observed within 30-60 minutes, whereas stabilization of Fra1 protein is delayed due to AP-1 regulation of the Fra1 promoter. Thus, growth factor-mediated induction of c-Fos, Fra1, and FosB expression was evaluated following treatment with SF-3-026. […]

ERK2, sequence (P63086 whole entry): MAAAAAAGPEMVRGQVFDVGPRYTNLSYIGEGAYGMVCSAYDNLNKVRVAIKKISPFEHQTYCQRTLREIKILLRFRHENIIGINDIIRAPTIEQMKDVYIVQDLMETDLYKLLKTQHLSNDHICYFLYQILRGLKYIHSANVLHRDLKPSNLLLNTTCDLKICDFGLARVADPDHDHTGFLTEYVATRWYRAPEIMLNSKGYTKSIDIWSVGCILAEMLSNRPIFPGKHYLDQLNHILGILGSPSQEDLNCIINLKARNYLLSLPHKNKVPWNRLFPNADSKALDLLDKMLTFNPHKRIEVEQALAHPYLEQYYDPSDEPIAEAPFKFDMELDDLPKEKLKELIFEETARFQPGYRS

| affinity (site 1 on ERK2) (ERK2) | GI50 (A375 melanoma cells [2]) [µM] | GI50 [3] [µM] | GI50 [4] [µM] | GI50 (RPMI7951 melanoma cells) [µM] | IC50 (AP-1 promoter) [µM] | IC50 [5] [µM] | SMILES | effect on A375 cell proliferation (A375 melanoma cells [1]) | caspase 3/7 activity in A375 cells (A375 melanoma cells [6]) | caspase 3/7 activity in HeLa cells (HeLa cells) | inhibition of EGF-induced c-Fos, Fra1, and FosB expression [7] |
| --- | --- | --- | --- | --- | --- | --- | --- | --- | --- | --- | --- |
| high nM affinity |  |  |  |  |  |  | CCOc1ccc(/C=C2\SC(=O)N(CCNc3nc(Cl)nc(Cl)n3)C2=O)cc1 [SF-2-054] | selective inhibition of A375 cells |  |  |  |
|  | 7.1 | 29 | > 50 | 4.6 | < 10 | 5 to 10 | O=S1(=O)C=CC(OS(=O)(=O)c2ccc3c(c2)CC=CC3)C1 (centres unmarked) [SF-3-030] |  | dose dependent increase | did not show increased caspase 3/7 activity | higher potency |
